Experimental findings from article PMC12155096 (International Journal of Molecular Sciences, 2025) are described below.

Data set [1] deals with human CYP2C19 (Homo sapiens, UniProt P33261).
The target in data set [2] is human CYP2C9 (Homo sapiens, UniProt P11712).
Data set [3] deals with T1, human CYP1A2 (Homo sapiens, UniProt P05177).
T1 sequence (P05177 1-516): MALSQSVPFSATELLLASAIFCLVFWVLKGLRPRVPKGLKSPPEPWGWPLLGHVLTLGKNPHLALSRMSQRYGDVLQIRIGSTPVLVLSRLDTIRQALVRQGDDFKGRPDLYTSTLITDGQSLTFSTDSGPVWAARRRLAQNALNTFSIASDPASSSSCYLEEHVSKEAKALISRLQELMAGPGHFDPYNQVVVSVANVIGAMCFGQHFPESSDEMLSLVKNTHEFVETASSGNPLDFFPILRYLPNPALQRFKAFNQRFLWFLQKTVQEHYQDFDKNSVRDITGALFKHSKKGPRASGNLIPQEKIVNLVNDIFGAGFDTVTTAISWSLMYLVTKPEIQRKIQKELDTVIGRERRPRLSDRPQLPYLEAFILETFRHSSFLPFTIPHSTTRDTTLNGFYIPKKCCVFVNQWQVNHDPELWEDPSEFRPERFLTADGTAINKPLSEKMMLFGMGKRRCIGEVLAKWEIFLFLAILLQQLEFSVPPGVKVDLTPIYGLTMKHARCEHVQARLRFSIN

Data set [4] has as its target human CYP2D6 (Homo sapiens, UniProt P10635).
Data set [5] has as its target Photinus pyralis (firefly) luciferase (Photinus pyralis, UniProt P08659). As to the kind of experiment: biochemical. The class given is biochemical.
Data set [6] concerns the target CYP3A4 (Homo sapiens, UniProt P08684).
Setting [7] is: read-out: Luciferase IC50 (half-maximal inhibitory concentration).

SMILES strings stand for the structures. Read-outs that look alike come from different tables or passages of the source.

Sequence of human CYP2C9 (P11712 whole entry): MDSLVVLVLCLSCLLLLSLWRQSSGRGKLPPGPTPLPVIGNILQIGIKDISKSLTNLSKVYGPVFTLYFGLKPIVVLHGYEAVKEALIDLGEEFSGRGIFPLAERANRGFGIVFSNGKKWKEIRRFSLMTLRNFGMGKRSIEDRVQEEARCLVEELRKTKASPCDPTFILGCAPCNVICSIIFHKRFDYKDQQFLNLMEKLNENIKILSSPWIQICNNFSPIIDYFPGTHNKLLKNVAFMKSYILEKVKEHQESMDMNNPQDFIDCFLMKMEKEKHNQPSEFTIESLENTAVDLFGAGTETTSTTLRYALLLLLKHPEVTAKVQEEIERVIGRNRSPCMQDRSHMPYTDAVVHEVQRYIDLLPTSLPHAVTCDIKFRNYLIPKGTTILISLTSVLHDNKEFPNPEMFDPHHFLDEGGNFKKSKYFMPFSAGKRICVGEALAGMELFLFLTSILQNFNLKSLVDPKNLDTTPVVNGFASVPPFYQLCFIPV
Sequence of human CYP2D6 (P10635 whole entry): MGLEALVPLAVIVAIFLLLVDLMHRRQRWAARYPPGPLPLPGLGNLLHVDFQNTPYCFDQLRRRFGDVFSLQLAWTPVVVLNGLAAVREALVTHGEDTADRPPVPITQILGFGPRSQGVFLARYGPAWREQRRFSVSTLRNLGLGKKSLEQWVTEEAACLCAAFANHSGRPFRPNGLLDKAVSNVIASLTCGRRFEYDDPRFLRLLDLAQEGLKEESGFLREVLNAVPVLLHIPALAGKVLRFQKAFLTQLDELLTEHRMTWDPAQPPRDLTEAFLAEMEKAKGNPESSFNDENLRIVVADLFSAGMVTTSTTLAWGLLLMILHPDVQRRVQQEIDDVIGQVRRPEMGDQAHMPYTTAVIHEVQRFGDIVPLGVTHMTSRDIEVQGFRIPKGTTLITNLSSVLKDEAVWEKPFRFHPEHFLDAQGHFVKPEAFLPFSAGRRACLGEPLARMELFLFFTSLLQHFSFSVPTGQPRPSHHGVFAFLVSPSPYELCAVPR
Sequence of CYP3A4 (P08684 whole entry): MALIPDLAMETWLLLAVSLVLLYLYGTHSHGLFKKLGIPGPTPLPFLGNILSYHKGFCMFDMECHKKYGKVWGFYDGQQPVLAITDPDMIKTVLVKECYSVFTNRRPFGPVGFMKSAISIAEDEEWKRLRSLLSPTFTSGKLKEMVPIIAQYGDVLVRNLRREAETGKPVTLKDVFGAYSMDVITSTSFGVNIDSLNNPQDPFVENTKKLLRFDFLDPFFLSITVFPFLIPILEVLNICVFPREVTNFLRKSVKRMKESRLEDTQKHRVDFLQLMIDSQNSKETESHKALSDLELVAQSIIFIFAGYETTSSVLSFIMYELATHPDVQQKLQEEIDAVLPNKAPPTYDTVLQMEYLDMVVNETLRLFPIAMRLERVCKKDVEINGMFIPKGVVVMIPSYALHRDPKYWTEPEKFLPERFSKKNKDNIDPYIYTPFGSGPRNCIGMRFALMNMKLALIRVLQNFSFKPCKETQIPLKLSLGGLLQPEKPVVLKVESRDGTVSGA
Sequence of human CYP2C19 (P33261 whole entry): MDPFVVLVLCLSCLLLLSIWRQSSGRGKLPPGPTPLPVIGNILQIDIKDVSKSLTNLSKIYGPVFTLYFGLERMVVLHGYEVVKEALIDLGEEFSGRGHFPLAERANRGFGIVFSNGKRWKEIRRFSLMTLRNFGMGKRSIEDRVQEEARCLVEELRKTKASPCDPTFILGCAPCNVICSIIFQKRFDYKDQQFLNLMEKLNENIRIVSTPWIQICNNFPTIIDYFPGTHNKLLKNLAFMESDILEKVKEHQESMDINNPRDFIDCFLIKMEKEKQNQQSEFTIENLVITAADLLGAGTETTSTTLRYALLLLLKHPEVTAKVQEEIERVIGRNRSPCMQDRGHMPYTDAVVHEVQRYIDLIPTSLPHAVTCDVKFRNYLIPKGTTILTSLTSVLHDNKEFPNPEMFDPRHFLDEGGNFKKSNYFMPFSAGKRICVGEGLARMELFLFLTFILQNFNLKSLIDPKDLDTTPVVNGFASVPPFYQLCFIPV
Sequence of Photinus pyralis (firefly) luciferase (P08659 whole entry): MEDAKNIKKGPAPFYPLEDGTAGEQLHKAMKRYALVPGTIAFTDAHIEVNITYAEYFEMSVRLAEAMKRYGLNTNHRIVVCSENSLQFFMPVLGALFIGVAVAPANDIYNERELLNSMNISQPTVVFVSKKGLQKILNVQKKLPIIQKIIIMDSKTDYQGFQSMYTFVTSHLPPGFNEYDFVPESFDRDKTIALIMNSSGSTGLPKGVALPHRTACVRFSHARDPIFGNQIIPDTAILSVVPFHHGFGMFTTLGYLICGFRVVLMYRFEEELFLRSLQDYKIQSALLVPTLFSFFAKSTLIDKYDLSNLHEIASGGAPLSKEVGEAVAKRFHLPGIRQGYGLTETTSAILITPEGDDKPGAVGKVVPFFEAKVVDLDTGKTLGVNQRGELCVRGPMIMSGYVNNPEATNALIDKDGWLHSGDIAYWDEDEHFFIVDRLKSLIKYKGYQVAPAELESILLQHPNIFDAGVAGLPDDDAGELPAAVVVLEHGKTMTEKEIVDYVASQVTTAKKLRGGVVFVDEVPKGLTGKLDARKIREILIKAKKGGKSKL

In general, AC50 refers to the midpoint of the concentration-response curve, whichever way the signal moves. A high value points to activity only at high concentration. In the case of `OCC(c1ccc(Cl)cc1)c1ccc(Cl)cc1` [2,2-Bis(4-chlorophenyl)ethanol], in data set [1], the “CYP2C19 Efficacy” value is reported as 0.14 ± 0.07 (-161 ± 31) %, the “CYP2C19 Efficacy (in parenthesis)” value is 0.14 ± 0.07 (-161 ± 31) % and the IC50 amounted to 0.14 µM. Also, in data set [2], the half-maximal activity concentration (AC50) was found to be 11.7 µM, the “CYP2C9 Efficacy” value is on record as 11.71 ± 0.79 (-108 ± 10) % and the “CYP2C9 Efficacy (in parenthesis)” value is 11.71 ± 0.79 (-108 ± 10) %. In addition, in data set [3], the “CYP1A2 Efficacy” value is 34.28 ± 2.23 (-78 ± 6) %, the “CYP1A2 Efficacy (in parenthesis)” value is 34.28 ± 2.23 (-78 ± 6) % and the IC50 was 34.3 µM. Also, in data set [4], the “CYP2D6 IC50 (half-maximal inhibitory concentration)” value is given as “Inactive”. In data set [5], the “Luciferase IC50 (half-maximal inhibitory concentration)” value is on record as “Inactive”. In data set [6], the concentration at half-maximal activity (AC50) turned out to be 18.7 µM, the “CYP3A4 Efficacy (in parenthesis)” value is reported as 18.71 ± 6.46 (64 ± 10) % and the “CYP3A4 IC50 (half-maximal inhibitory concentration)” value is recorded as 18.71 ± 6.46 (64 ± 10) µM.
On to `CCOc1cc(OCC)c(C(C)=O)cc1OCC` [2,4,5-Triethoxyacetophenone], for which the IC50 was 65 µM in data set [1], 0.87 µM in data set [3], 69.8 µM in data set [4] and 58.5 µM in data set [6]. Besides, in data set [2], the “CYP2C9 Efficacy” value is listed as 37.98 ± 5.23 (-54 ± 11) %. The “Luciferase IC50 (half-maximal inhibitory concentration)” value in data set [5] is reported as “Inactive”.
Consider `Cc1cc(N=Nc2ccccc2C)ccc1N` [2-Amino-5-azotoluene], for which the IC50 came out at 6.21 µM in data set [1]; 0.99 µM in data set [3]; 45.4 µM in data set [4]; 5.66 µM in data set [5] (read-out: Luciferase IC50); 2.53 µM in data set [6]. Also, the “CYP2C9 Efficacy” value in data set [2] is listed as 5.45 ± 1.48 (-102 ± 10) %.
For the compound `Nc1nc2ccc([N+](=O)[O-])cc2s1` [2-Amino-6-nitrobenzothiazole], the IC50 was 35.7 µM in data set [1]; 9.75 µM in data set [3]; 44 µM in data set [4]; 66.4 µM in data set [5] (read-out: Luciferase IC50); 60.6 µM in data set [6]. For the same compound, the “CYP2C9 Efficacy” value in data set [2] is on record as 59.75 ± 4.61 (-39 ± 3) %.
For `Clc1ccc2c(c1)Nc1ccccc1S2` [2-Chlorophenothiazine], the figures for the IC50 in data set [1] and in data set [3] were 7.85 µM and 0.44 µM, respectively. For the same compound, the “CYP2C9 Efficacy” value in data set [2] is 11.4 ± 3.88 (-60 ± 10) %. Also, in data set [4], the “CYP2D6 IC50 (half-maximal inhibitory concentration)” value was “Inactive”. The “Luciferase IC50 (half-maximal inhibitory concentration)” value in data set [5] is listed as “Inactive”. Moreover, in data set [6], the “CYP3A4 IC50 (half-maximal inhibitory concentration)” value was “Inactive”.
Consider `NNc1nc(-c2ccccc2)cs1` [2-Hydrazino-4-phenylthiazole], for which the IC50 in data set [1] was 8.06 µM; in data set [2], 8.86 µM; in data set [3] it was 0.75 µM; in data set [4], 53.2 µM; in data set [5] (read-out: Luciferase IC50) it was 33.9 µM; in data set [6], 14 µM.
Consider `COc1cc2c(cc1N)oc1ccccc12` [2-Methoxy-3-aminodibenzofuran], for which the IC50 stood at 3.95 µM in data set [1]; 6.23 µM in data set [2]; 0.63 µM in data set [3]; 7.61 µM in data set [4]; 54.6 µM in data set [5] (setting [7]); 8.5 µM in data set [6].
Turning to `Cc1cc(-c2cc(C)c(N)c(C)c2)cc(C)c1N` [3,3',5,5'-Tetramethylbenzidine], the IC50 is 12.1 µM in data set [1]; 21.2 µM in data set [2]; 0.24 µM in data set [3]; 16.2 µM in data set [4]; 28.1 µM in data set [6]. Also, the “Luciferase IC50” value in data set [5] was “Inactive”.
Consider `COc1cc(-c2ccc(N)c(OC)c2)ccc1N.Cl.Cl` [3,3'-Dimethoxybenzidine dihydrochloride], for which the IC50 in data set [1] was determined as 7.39 µM; in data set [2], 8.91 µM; in data set [3] it was 0.82 µM; in data set [4], 30.4 µM; in data set [5] (setting [7]), 60.4 µM; in data set [6] it was 1.71 µM.
As for `CC(=O)c1ccc2ccc3ccccc3c2c1` [3-Acetylphenanthrene], in data set [1], the “CYP2C19 Efficacy (in parenthesis)” value is 22.42 ± 2.58 (-138 ± 3) % and the IC50 stood at 22.4 µM. For the same compound, in data set [2], the “CYP2C9 Efficacy (in parenthesis)” value was 11.64 ± 0.79 (-93 ± 2) % and the IC50 is 11.6 µM. In data set [3], the “CYP1A2 Efficacy (in parenthesis)” value is 1.04 ± 0.13 (-97 ± 1) % and the IC50 turned out to be 1.04 µM. Moreover, in data set [4], the “CYP2D6 Efficacy (in parenthesis)” value is on record as 88.85 ± 0 (-46 ± 10) % and the IC50 worked out at 88.9 µM. The “Luciferase Efficacy (in parenthesis)” value in data set [5] is reported as 32.81 ± 2.22 (-56 ± 6) %. Moreover, in data set [5] (setting [7]), the IC50 stood at 32.8 µM. In data set [6], the “CYP3A4 Efficacy (in parenthesis)” value is listed as 48.54 ± 19.2 (-66 ± 4) % and the IC50 amounted to 48.5 µM.
In the case of `O=C(C(=O)c1ccc(Br)cc1)c1ccc(Br)cc1` [4,4'-Dibromobenzil], in data set [1], the “CYP2C19 Efficacy (in parenthesis)” value was 0.71 ± 0.31 (-137 ± 6) % and the IC50 was 0.71 µM. Further, the “CYP2C9 IC50 (half-maximal inhibitory concentration)” value in data set [2] is given as “Inactive”. Further, in data set [3], the “CYP1A2 Efficacy (in parenthesis)” value is reported as 9.92 ± 0 (-37 ± 3) % and the IC50 worked out at 9.92 µM. Also, in data set [4], the “CYP2D6 IC50 (half-maximal inhibitory concentration)” value is “Inactive”. The “Luciferase IC50 (half-maximal inhibitory concentration)” value in data set [5] is “Inactive”. For the same compound, the “CYP3A4 IC50 (half-maximal inhibitory concentration)” value in data set [6] is on record as “Inactive”.
For `c1cc(CCCc2ccncc2)ccn1` [4,4'-Propane-1,3-diyldipyridine], the IC50 in data set [1] was found to be 1.5 µM; in data set [2], 5.05 µM; in data set [3], 1.54 µM; in data set [4], 1.54 µM; in data set [6], 0.87 µM. In addition, the “Luciferase IC50” value in data set [5] is “Inactive”.
Take `Cc1cccc2c1cc1ccc3cccc4ccc2c1c34` [7-Methylbenzo(a)pyrene]: in data set [1], the “CYP2C19 IC50” value was “Inactive”. Besides, the “CYP2C9 IC50” value in data set [2] was “Inactive”. In data set [3], this compound returned a concentration at half-maximal activity (AC50) of 0.16 µM and an IC50 of 0.16 µM. Moreover, the “CYP2D6 IC50” value in data set [4] is on record as “Inactive”. Besides, the “Luciferase IC50” value in data set [5] is listed as “Inactive”. Also, in data set [6], the AC50 stood at 73 µM and the “CYP3A4 IC50” value was 72.98 ± 8.39 (145 ± 22) µM.
For the compound `O=C1CCCc2c1cc1ccc3cccc4ccc2c1c34` [9,10-Dihydrobenzo[a]pyren-7(8H)-one], the “CYP2C19 Efficacy (in parenthesis)” value in data set [1] is reported as 26.27 ± 7.32 (-125 ± 17) %. Besides, the IC50 was 26.3 µM in data set [1]; 5.32 µM in data set [2]; 0.28 µM in data set [3]; 9.87 µM in data set [5] (setting [7]); 9.09 µM in data set [6]. Besides, the “CYP2C9 Efficacy (in parenthesis)” value in data set [2] is reported as 5.32 ± 0.68 (-71 ± 3) %. Also, the “CYP1A2 Efficacy (in parenthesis)” value in data set [3] is 0.28 ± 0.05 (-100 ± 3) %. In addition, the “CYP2D6 IC50 (half-maximal inhibitory concentration)” value in data set [4] was “Inactive”. Besides, the “Luciferase Efficacy (in parenthesis)” value in data set [5] is reported as 9.87 ± 1.68 (-53 ± 7) %. For the same compound, the “CYP3A4 Efficacy (in parenthesis)” value in data set [6] is 9.09 ± 1.05 (-72 ± 4) %.
Consider `N#Cc1cc2ccccc2c2ccccc12` [9-Cyanophenanthrene], for which the IC50 is 29.3 µM in data set [1], 39.3 µM in data set [2], 0.06 µM in data set [3] and 62.4 µM in data set [5] (read-out: Luciferase IC50). Also, in data set [4], the “CYP2D6 IC50” value is “Inactive”. Also, the “CYP3A4 IC50” value in data set [6] is listed as “Inactive”.
`Oc1cc2ccccc2c2ccccc12` [9-Phenanthrol]: the “CYP2C19 Efficacy (in parenthesis)” value in data set [1] is given as 1.22 ± 0.17 (-132 ± 15) %. The IC50 was 1.22 µM in data set [1]; 4.41 µM in data set [2]; 0.05 µM in data set [3]; 2.53 µM in data set [4]; 71.3 µM in data set [5] (setting [7]). Further, the “CYP2C9 Efficacy (in parenthesis)” value in data set [2] is listed as 4.41 ± 1.07 (-106 ± 2) %. Besides, the “CYP1A2 Efficacy (in parenthesis)” value in data set [3] was 0.05 ± 0.01 (-99 ± 4) %. In addition, the “CYP2D6 Efficacy (in parenthesis)” value in data set [4] is 2.53 ± 0.29 (-109 ± 3) %. Further, in data set [5], the “Luciferase Efficacy (in parenthesis)” value is 71.29 ± 8.19 (-61 ± 21) %. Besides, the “CYP3A4 Efficacy (in parenthesis)” value in data set [6] is reported as 6.1 ± 0.4 (-91 ± 4) %.
